Measurements as given in patent US20180185347A1, “TETRAHYDROCYCLOPENTA[B]INDOLE COMPOUNDS AND PHOSPHODIESTERASE INHIBITORS FOR THE TREATMENT OF THE SIGNS AND SYMPTOMS OF BHP” (Transition Therapeutics (Ireland 2) Limited, priority 2016, published 2018).
Entries after “also recorded” stand apart in the source; their conditions may differ.

How the values were obtained:
[1] = Clinical safety and laboratory parameters; settings: for hemoglobin and hematocrit: any dose tested, 12 weeks
[2] = Study GPBA single oral dose pharmacokinetics; settings: human, in vivo, healthy subjects; for Cmax: geometric mean; for Tmax: median
[3] = system: rats; assay: Rat toxicology program: prostate weight and atrophy; assay type: in vivo; parameters: key: “”: no effect observed
[4] = system: orchidectomized rats; assay: Prostate and seminal vesicle weight in delayed ORX rat model (SV/Prostate risk); settings: for prostate or seminal vesical weights: delayed ORX rats, 2 or 8 weeks, doses up to 20-30 mg/kg
Excerpt: (§1) Orchidectomized (ORX) and sham-operated Wistar male rats were used (orchidectomized at 8 weeks of age and allowed to waste for 4 weeks). […] Rats were randomized and placed into treatment groups (n=6) based on body weight. Route of administration for all groups except testosterone enanthate (TE was given sub-cutaneously) was oral. At the end of 2 weeks of daily rats were euthanized, weighed & tissue harvested. Levator ani, prostates, and seminal vesicles were collected from each animal. Results are plotted as means±SE.

[5] = system: orchidectomized rats; assay: Levator ani / bulbocavernous muscle weight in delayed ORX rat model; assay type: in vivo
Excerpt: Results are plotted as means±SE.
Following the androgen deficiency in the ORX model, the Levator ani- and bulbocavernous muscle weights decreased in size.

[6] = system: PSA levels; settings: healthy volunteers, any time point or dose, data of WO 2016040234; cited from earlier work
[7] = Dog bioavailability; assay type: in vivo
[8] = QT / ECG assessment in clinical studies; assay type: in vivo, human; settings: Study GPEC
[9] = target: T1, serum hormone binding globulin (Homo sapiens, UniProt P04278); assay: Affinity to serum hormone binding globulin; settings: at 10 μM
T1 sequence (P04278 30-402): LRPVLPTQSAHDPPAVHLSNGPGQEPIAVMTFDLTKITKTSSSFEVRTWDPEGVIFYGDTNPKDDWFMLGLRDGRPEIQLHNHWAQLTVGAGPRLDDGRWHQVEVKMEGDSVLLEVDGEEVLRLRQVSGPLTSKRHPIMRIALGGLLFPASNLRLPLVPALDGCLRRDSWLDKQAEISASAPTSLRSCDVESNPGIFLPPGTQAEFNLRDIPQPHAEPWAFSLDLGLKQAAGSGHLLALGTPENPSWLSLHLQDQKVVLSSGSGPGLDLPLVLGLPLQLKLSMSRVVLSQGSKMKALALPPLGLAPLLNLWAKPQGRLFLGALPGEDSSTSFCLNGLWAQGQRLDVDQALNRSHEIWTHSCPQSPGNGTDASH

[10] = target: T2, 17-beta-Hydroxysteroid Dehydrogenase Type 2 (Homo sapiens, UniProt P37059); assay: Metabolism by 17-beta-HSD type 2; assay type: in vitro ADME
T2 sequence (P37059 1-387): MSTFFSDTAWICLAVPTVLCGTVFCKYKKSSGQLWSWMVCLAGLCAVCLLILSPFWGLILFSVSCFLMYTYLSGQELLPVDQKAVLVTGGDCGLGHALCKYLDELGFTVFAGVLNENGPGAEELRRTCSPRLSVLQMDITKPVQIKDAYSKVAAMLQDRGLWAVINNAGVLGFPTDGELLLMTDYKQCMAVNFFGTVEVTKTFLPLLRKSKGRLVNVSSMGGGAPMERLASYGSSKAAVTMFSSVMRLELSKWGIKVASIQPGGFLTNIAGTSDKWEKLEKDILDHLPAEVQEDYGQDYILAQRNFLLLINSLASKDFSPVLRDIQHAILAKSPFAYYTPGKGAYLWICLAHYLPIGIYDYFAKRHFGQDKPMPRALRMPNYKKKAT

[11] = Clinical body composition and muscle power; assay type: in vivo, human
Excerpt: The Phase 2 Study for ED also included exploratory measures for lower extremity muscle strength and power, LBM and fat mass. […] The results are illustrated in FIGS. 12, 13, and 14.

[12] = system: LnCAP cells; assay: LnCAP gene expression; assay type: cell-based; settings: Homo sapiens, read-out: LnCAP Gene Expression EC50 (nM) AR
[13] = system: PSA levels; assay: PSA in healthy subjects (Study GPBC, Phase 1); assay type: in vivo, human
Excerpt: The results of this study are illustrated in FIG. 6.

[14] = system: orchidectomized rats; assay: Testosterone induced prostate / seminal vesicle growth in delayed ORX rat model; assay type: in vivo
Excerpt: as §1

[15] = Rat bioavailability; assay type: in vivo
[16] = system: dogs; assay: Dog toxicology program: prostate weight and atrophy; assay type: in vivo; parameters: key to Prostate weight (mean % decrease): “”: no effect observed; settings: for Prostate weight (mean % decrease): dog
[17] = clinical studies in patients with androgen deficiency
[18] = Study GPEC, 12 weeks, 5 mg + 5 mg tadalafil compared with 10 mg tadalafil

SMILES: CC(C)OC(=O)N[C@H]1Cc2c(n(Cc3ccccn3)c3ccc(C#N)cc23)C1 [compound of Formula II, (S)-(7-cyano-4-pyridin-2-ylmethyl-1,2,3,4-tetrahydro-cyclopenta[b]indol-2-yl)-carbamic acid isopropyl ester]
- HDL cholesterol levels and apolipoprotein A1 ([1]; Study GPEC): decreased
- testosterone ([1]; Study GPEC, 12-week, elderly men, with reduction of SHBG): clinically meaningful decrease
- systolic blood pressure, diastolic blood pressure, or heart rate ([1]; clinical studies): did not yield any significant changes
- decrease in the levels of endogenous testosterone [1, 17]: 20-30%
- total bilirubin, GGT, or alkaline phosphatase ([1]; clinical studies, any dose): no significant increases
- hemoglobin and hematocrit ([1]; clinical): no increases
- hemoglobin and hematocrit ([1]; clinical, listed as TT701): no change in Hematocrit
- immunotoxicity safety signal ([1]; clinical, to date): no immunotoxicity safety signal has been observed
- dose demonstrated safe in clinical studies ([1]; human, in vivo): up to 1000 mgs/day
- decrease in HDL ([1]; patients, 5 mg for 12 weeks): 20%
- liver transaminases (AST or ALT) ([1]; phase 2 study, three subjects, two ≥2×ULN, one ≥3×ULN): transient abnormal AST or ALT
- Cmax ([2]; single oral dose 5 mg): 25.9 ng/mL
- Tmax ([2]; single oral dose 5 mg): 5 h
- Cmax ([2]; single oral dose 25 mg): 123 ng/mL
- Tmax ([2]; single oral dose 25 mg): 4 h
- Cmax ([2]; single oral dose 250 mg): 589 ng/mL
- Tmax ([2]; single oral dose 250 mg): 5 h
- Cmax ([2]; single oral dose 500 mg): 817 ng/mL
- Tmax ([2]; single oral dose 500 mg): 4 h
- Cmax ([2]; single oral dose 1000 mg): 910 ng/mL
- Tmax ([2]; single oral dose 1000 mg): 4.5 h
- Prostate weight (mean % decrease) ([3]; 1+ months, 15 mg/kg/day): “”
- Prostate weight (mean % decrease) ([3]; 1+ months, 150 mg/kg/day): “”
- Prostate weight (mean % decrease) ([3]; 1+ months, 1500 mg/kg/day): “”
- Prostate weight (mean % decrease) ([3]; 6+ months, 15 mg/kg/day): “”
- Prostate weight (mean % decrease) ([3]; 6+ months, 150 mg/kg/day): ^↓30%
- Prostate weight (mean % decrease) ([3]; 6+ months, 1500 mg/kg/day): ^↓34%
- Prostate weight (mean % decrease) ([3]; Male Fertility (3 months), 3 mg/kg/day): “”
- Prostate weight (mean % decrease) ([3]; Male Fertility (3 months), 30 mg/kg/day): ^↓23%
- Prostate weight (mean % decrease) ([3]; Male Fertility (3 months), 1000 mg/kg/day): ^↓39%
- changes in the prostate of orchidectomized rats ([4]; 30 mg/kg, the highest dose examined): did not induce changes
- prostate or seminal vesical weights [4]: had no effect; also recorded: minimal accrual SV/Prostate risk
- prostate or seminal vesical weights ([4]; listed as TT701): minimal accrual SV/Prostate risk
- ED50 ([5]; Rattus norvegicus, read-out: ED50 for the levator ani muscle): 1 to 3 mg/kg
- Levator ani- and bulbocavernous muscle weights ([5]; delayed ORX rat, 8 weeks, 1 to 3 mg/kg/day): increased significantly
- PSA levels, change from baseline vs placebo [6]: no significant changes from baseline
- bioavailability ([7]; in vivo, read-out: Dog F %): 58%
- Dog F % ([7]; listed as TT701): 58%
- ECG data [8]: did not show evidence of clinically meaningful changes
- affinity to serum hormone binding globulin [9]: none detected
- metabolism by 17-beta-Hydroxysteroid Dehydrogenase Type 2 class of enzymes [10]: not metabolized
- LBM and calf area (by CT) ([11]; Study GPBC, healthy subjects, 28 days): clinically and statistically significant increases
- fat body mass and LBM [11, 18]: reduction of fat body mass and an increase (improvement) of LBM
- lower extremity muscle power (stair climb) [11, 18]: increased (improved)
- lean body mass [11, 17]: clinically and statistically significant increases
- EC50 [12]: 1.64 nM
- PSA test, effect on the prostate ([13]; Study GPBC, healthy subjects, 1 mg to 75 mg daily for 28 days): neutral to negative effect (decreasing PSA)
- PSA ([13]; clinical studies, any dose level (up to 75 mg doses)): No increases in PSA were observed
- prostate weights, Abs(Dif)-LSD vs ORX + TE control ([14]; 1 mg/kg/d + 3 mg/kg/d): −0.11
- seminal vesicle wet weights, Abs(Dif)-LSD vs ORX + TE control ([14]; 1 mg/kg/d + 3 mg/kg/d): −0.34
- prostate weights, Abs(Dif)-LSD vs ORX + TE control ([14]; 1 mg/kg/d + 10 mg/kg/d): 0.036
- seminal vesicle wet weights, Abs(Dif)-LSD vs ORX + TE control ([14]; 1 mg/kg/d + 10 mg/kg/d): 0.078
- prostate weights, Abs(Dif)-LSD vs ORX + TE control ([14]; 1 mg/kg/d + 30 mg/kg/d): 0.025
- prostate and seminal vesical weights normalized to body weight compared to TE alone ([14]; ORX rat, TE 1 mg/kg/d + 3, 10 and 30 mg/kg/d, 2 weeks): decreasing prostate weight and seminal vesical weights; also recorded: reduced testosterone induced effects on prostate size
- bioavailability ([15]; in vivo, read-out: Rat F %): 63%
- Rat F % ([15]; listed as TT701): 63%
- Prostate weight (mean % decrease) ([16]; 1+ months, 3 mg/kg/day): “”
- Prostate weight (mean % decrease) ([16]; 1+ months, 30 mg/kg/day): “”
- Prostate weight (mean % decrease) ([16]; 1+ months, 150 mg/kg/day): “”
- Prostate weight (mean % decrease) ([16]; 6+ months, 3 mg/kg/day): ^↓63%
- Prostate weight (mean % decrease) ([16]; 6+ months, 30 mg/kg/day): ^↓66%
- Prostate weight (mean % decrease) ([16]; 6+ months, 150 mg/kg/day): ^↓75%
- Prostate weight (mean % decrease) ([16]; 12 months, 3 mg/kg/day): ^↓60%
- Prostate weight (mean % decrease) ([16]; 12 months, 10 mg/kg/day): ^↓62%
- Prostate weight (mean % decrease) ([16]; 12 months, 100 mg/kg/day): ^↓80%
- decreases in prostate weight ([16]; dogs, by 3 months (so in the source)): 60-75%
- decrease in prostate size ([16]; normal dogs, six-month treatment period): 60%
